SMILES strings stand for the structures.

Usually melting point stands for the temperature, or range, at which the solid turns liquid. `Cc1cc(Cl)cc(C(=O)NC(C)C)c1N(C(=O)c1cc(C(F)(F)F)n[nH]1)c1ncccc1Cl` [Compound 4, N-[4-chloro-2-methyl-6-[[(1-methylethyl)amino]carbonyl]phenyl]-N-(3-chloro-2-pyridinyl)-3-(trifluoromethyl)-1H-pyrazole-5-carboxamide] came in with a melting point of 173 to 176 °C.

The record behind these values is patent US7179824B2, “Arthropodicidal anthranilamides” (E. I. du Pont de Nemours and Company, priority 2001, dated 2007).
